Test results: patent publication US7678812B2, “Aminotetralin-derived urea modulators of vanilloid VR1 receptor” (Janssen Pharmaceutica NV, priority 2002, dated 2010)

Tested on: capsaicin-induced cough responses
Assay: Capsaicin-induced cough (antitussive efficacy)
Type: in vivo, guinea pig
Conditions: codeine 25 mg/kg IP at -60 min; capsaicin aerosol 15 μM; vehicle 3.0±0.5; P<0.001
Experimental: The antitussive activity of intraperitoneally (IP) administered compound is assessed at a single dose level against capsaicin-induced cough responses as compared to positive and vehicle controls. Thirty-six male Dunkin-Hartley guinea pigs (295-590 g, mean=425 g) are randomly allocated to one of three groups (n=12 guinea pigs per group). […] Guinea pigs are dosed IP at —60 min with vehicle (15% Solutol in 5% dextrose solution); the positive control codeine (25 mg/kg), or test compound (20 mg/kg in 15% Solutol in 5% dextrose solution). Individual guinea pigs are placed in an exposure chamber with an airflow of 3 L/min at —10 min to acclimatize. […] The mean ±SEM number of capsaicin-induced cough responses recorded in vehicle pre-treated guinea pigs was 3.0±0.5. […] ANOVA statistical analysis was used to determine the level of significance.

COc1ccc2c3c1O[C@H]1[C@@H](O)C=C[C@H]4[C@@H](C2)N(C)CC[C@@]341 [codeine]
number of capsaicin-induced cough responses (mean ±SEM): 0.58±0.15 coughs
